Results reported in patent US9521846B2, “Template-fixed peptidomimetics with antimicrobial activity” (priority 2006, dated 2016).
In brackets after ≈: the same amount, converted by molar mass. Non-standard residues stand in square brackets, D forms with d. Residues, ends and D or L forms follow the SMILES beside them. Cit = NC(=O)NCCC[C@H](N)C(=O)O; Dab = NCC[C@H](N)C(=O)O

Assays:
[1] = test system: HELA cells (Acc57); test: Cytotoxicity assay, MTT reduction (LC 50, GI 50); format: cell-based
Description: The cytotoxicity of the peptides to HELA cells (Acc57) and COS-7 cells (CRL-1651) was determined using the MIT reduction assay [see ref. 2 and 3, below]. Briefly the method was as follows: HELA cells and COS-7 cells were seeded at 7.0×10^3 and, respectively, 4.5×10^3 cells per well and grown in 96-well […] plates for 24 hours at 37° C. at 5% CO2. At this point, time zero (Tz) was determined by MTT reduction (see below). The supernatant of the remaining wells was discarded, and fresh medium and the peptides in serial dilutions of 12.5, 25 and 50 μM were dispensed into the wells. Each peptide concentration was assayed in triplicate. Incubation of the cells was continued for 48 hours at 37° C. at 5% CO2. Wells were then washed once with phosphate buffered saline (PBS) and subsequently 100 μl MIT reagent (0.5 mg/ml in medium RPMI1640 and, respectively, DMEM) were added to the wells. This was incubated at 37° C. for 2 hours and subsequently the medium was aspirated and 100 μl isopropanol were added to each well. The absorbance at 595 nm of the solubilized product was measured (OD595peptide). For each concentration averages were calculated from triplicates. The percentage of growth was calculated as follows: (OD595peptide-OD595Tz-OD595Empty well)/(OD595Tz-OD595Empty well)×100% and was plotted for each peptide concentration.
The LC 50 values (Lethal Concentration, defined as the concentration that kills 50% of the cells) were determined for each peptide by using the trend line function of EXCEL (Microsoft Office 2000) for the concentrations (50, 25, 12.5 and 0 μM), the corresponding growth percentages and the value −50, (=TREND(C50:C0,%50:%0,−50)). The GI 50 (Growth Inhibition) concentrations were calculated for each peptide by using a trend line function for the concentrations (50, 25, 12.5 and 0 […]), the corresponding percentages and the value 50, (=TREND (C50:C0,%50:%0,50).

[2] = test system: Pseudomonas aeruginosa P8191900; format: cell-based; conditions: P8191900
Description: (§1) The selective antimicrobial activities of the peptides were determined in 96-well plates (Nunclon polystyrene) by the standard NCCLS broth microdilution method (see ref 1, below) with slight modifications. Innocula of the microorganisms were diluted into Mueller-Hinton (MH) broth+0.02% BSA and compared with a 0.5 Mcfarland standard to give appr. 10^6 colony forming units (CFU)/ml. Aliquots (50 μl) of inoculate were added to 50 μl of MH broth+0.02% BSA containing the peptide in serial two-fold dilutions. The following microorganisms were used to determine antibiotic selectivity of the peptides: Escherichia coli (ATCC 25922), Pseudomonas aeruginosa (P. aeruginosa ATCC 27853, P8191900, P1021903, P1021913, IMP 1 Livermore 3140).

[3] = test system: Pseudomonas aeruginosa IMP 1 Livermore 3140; format: cell-based; conditions: IMP 1 Livermore 3140
Description: as §1

[4] = test system: Pseudomonas aeruginosa P1021903; format: cell-based; conditions: P1021903
Description: as §1

[5] = test system: Pseudomonas aeruginosa P1021913; format: cell-based; conditions: P1021913
Description: as §1

[6] = test system: human red blood cells (hRBC); test: Hemolysis; format: cell-based; conditions: 100
Description: Hemolysis of red blood cells is often employed for assessment of toxicity of related compounds such as protegrin or tachyplesin. Values are given as %-lysis of red blood cells observed at a concentration of 100 μg/ml. Typical values determined for cationic peptides such as protegrin and tachyplesin range between 30-40% with average MIC-values of 1-5 μg/ml over a wide range of pathogens.
The peptides were tested for their hemolytic activity against human red blood cells (hRBC). Fresh hRBC were washed three times with phosphate buffered saline (PBS) by centrifugation for 10 min at 2000×g. Peptides at a concentration of 100 μM were incubated with 20% v/v hRBC for 1 hour at 37° C. The final erythrocyte concentration was approximately 0.9×10^9 cells per ml. A value of 0% and, respectively, 100% cell lysis was determined by incubation of the hRBC in the presence of PBS alone and, respectively, 0.1% Triton X-100 in H2O. The samples were centrifuged, the supernatant was 20-fold diluted in PBS buffer and the optical density (OD) of the sample at […] was measured. The 100% lysis value (OD540H20) gave an OD540 of approximately 1.3-1.8. Percent hemolysis was calculated as follows: (OD540peptide/OD540H20)×100%.

[7] = test system: P. aeruginosa
[8] = test system: P. aeruginosa ATCC 27853; format: cell-based, Pseudomonas aeruginosa; conditions: ATCC 27853
Description: as §1

SMILES | Cytotoxicity GI50 Hela cells [1] | MIC P. aeruginosa P8191900 [2] | MIC P. aeruginosa IMP1 Livermore 3140 [3] | MIC P. aeruginosa P1021903 [4] | MIC P. aeruginosa P1021913 [5] | Hemolysis at 100 μg/ml [6] | Average MIC [7] | MIC P. aeruginosa ATCC 27853 [8]
CC[C@H](C)[C@@H]1NC(=O)[C@H](Cc2c[nH]c3ccccc23)NC(=O)[C@H](CCCNC(N)=O)NC(=O)[C@@H]2CCCN2C(=O)[C@H]2CCCN2C(=O)[C@H](CCN)NC(=O)[C@H](C)NC(=O)[C@H](CCN)NC(=O)[C@H](CCN)NC(=O)[C@H](Cc2c[nH]c3ccccc23)NC(=O)[C@H](CCN)NC(=O)[C@H](CCN)NC(=O)[C@H](CCCCN)NC(=O)[C@H](CCN)NC1=O [Example 18] (cyclo([Cit]WI[Dab]K[Dab][Dab]W[Dab][Dab]A[Dab][dP]P)) | 50 µM | 0.10 µg/mL (≈ 0.0611 µM) | 0.30 µg/mL (≈ 0.183 µM) | 0.10 µg/mL (≈ 0.0611 µM) | 0.81 µg/mL (≈ 0.495 µM) | 0.4% | 0.28 µg/mL | 0.06 µg/mL (≈ 0.0367 µM)
CC[C@H](C)[C@@H]1NC(=O)[C@H](Cc2ccc(O)cc2)NC(=O)[C@H]([C@@H](C)O)NC(=O)[C@@H]2CCCN2C(=O)[C@H]2CCCN2C(=O)[C@H](CCN)NC(=O)[C@H](C)NC(=O)[C@H](CCN)NC(=O)[C@H](CCN)NC(=O)[C@H](Cc2c[nH]c3ccccc23)NC(=O)[C@H](CCN)NC(=O)[C@H](CCN)NC(=O)[C@H](CCCCN)NC(=O)[C@H](CCN)NC1=O [Example 19] (cyclo(TYI[Dab]K[Dab][Dab]W[Dab][Dab]A[Dab][dP]P)) | 50 µM | 0.05 µg/mL (≈ 0.0321 µM) | 0.10 µg/mL (≈ 0.0642 µM) | 0.03 µg/mL (≈ 0.0193 µM) | 0.10 µg/mL (≈ 0.0642 µM) | 0.2% | 0.06 µg/mL | 0.03 µg/mL (≈ 0.0193 µM)
CC[C@H](C)[C@@H]1NC(=O)[C@H](Cc2c[nH]c3ccccc23)NC(=O)[C@H]([C@@H](C)O)NC(=O)[C@@H]2CCCN2C(=O)[C@H]2CCCN2C(=O)[C@H](CCN)NC(=O)[C@H](C)NC(=O)[C@H](CCN)NC(=O)[C@H](CCN)NC(=O)[C@H](Cc2ccc(O)cc2)NC(=O)[C@H](CCN)NC(=O)[C@H](CCN)NC(=O)[C@H](CCCCN)NC(=O)[C@H](CCN)NC1=O [Example 20] (cyclo(TWI[Dab]K[Dab][Dab]Y[Dab][Dab]A[Dab][dP]P)) | 50 µM | 0.40 µg/mL (≈ 0.257 µM) | 1.25 µg/mL (≈ 0.802 µM) | 0.21 µg/mL (≈ 0.135 µM) | 0.31 µg/mL (≈ 0.199 µM) | 0.2% | 0.48 µg/mL | 0.21 µg/mL (≈ 0.135 µM)
CC[C@H](C)[C@@H]1NC(=O)[C@H](Cc2c[nH]c3ccccc23)NC(=O)[C@H]([C@@H](C)O)NC(=O)[C@@H]2CCCN2C(=O)[C@H]2CCCN2C(=O)[C@H](CCN)NC(=O)[C@H](C)NC(=O)[C@H](CCN)NC(=O)[C@H](CCN)NC(=O)[C@H](Cc2c[nH]c3ccccc23)NC(=O)[C@H](Cc2c[nH]cn2)NC(=O)[C@H](CCN)NC(=O)[C@H](CCCCN)NC(=O)[C@H](CCN)NC1=O [Example 21] (cyclo(TWI[Dab]K[Dab]HW[Dab][Dab]A[Dab][dP]P)) | 50 µM | 0.40 µg/mL (≈ 0.247 µM) | 1.00 µg/mL (≈ 0.618 µM) | 0.21 µg/mL (≈ 0.13 µM) | 0.31 µg/mL (≈ 0.192 µM) | 0.4% | 0.40 µg/mL | 0.09 µg/mL (≈ 0.0556 µM)
CC[C@H](C)[C@@H]1NC(=O)[C@H](Cc2c[nH]c3ccccc23)NC(=O)[C@H](C)NC(=O)[C@@H]2CCCN2C(=O)[C@H]2CCCN2C(=O)[C@H](CCN)NC(=O)[C@H](C(C)C)NC(=O)[C@H](CCN)NC(=O)[C@H](CCN)NC(=O)[C@H](Cc2c[nH]c3ccccc23)NC(=O)[C@H](CCN)NC(=O)[C@H](CCN)NC(=O)[C@H](CCN)NC(=O)[C@H](CCN)NC1=O [Example 23] (cyclo(AWI[Dab][Dab][Dab][Dab]W[Dab][Dab]V[Dab][dP]P)) | 13 µM | 1.00 µg/mL (≈ 0.645 µM) | >2 µg/mL | 1.50 µg/mL (≈ 0.967 µM) | 1.25 µg/mL (≈ 0.806 µM) | 0.5% | >1 µg/mL | 1.00 µg/mL (≈ 0.645 µM)
CC[C@H](C)[C@@H]1NC(=O)[C@H](Cc2c[nH]c3ccccc23)NC(=O)[C@H]([C@@H](C)O)NC(=O)[C@@H]2CCCN2C(=O)[C@H]2CCCN2C(=O)[C@H](CCN)NC(=O)[C@H](C)NC(=O)[C@H](CCN)NC(=O)[C@H](CCN)NC(=O)[C@H](Cc2c[nH]c3ccccc23)NC(=O)[C@H](CCCCN)NC(=O)[C@H](CCN)NC(=O)[C@H](CCCCN)NC(=O)[C@H](CCN)NC1=O [Example 26] (cyclo(TWI[Dab]K[Dab]KW[Dab][Dab]A[Dab][dP]P)) | 50 µM | 0.30 µg/mL (≈ 0.186 µM) | 0.40 µg/mL (≈ 0.249 µM) | 0.13 µg/mL (≈ 0.0808 µM) | 0.18 µg/mL (≈ 0.112 µM) | 0.8% | 0.22 µg/mL | 0.08 µg/mL (≈ 0.0497 µM)
CC[C@H](C)[C@@H]1NC(=O)[C@H](Cc2c[nH]c3ccccc23)NC(=O)[C@H]([C@@H](C)O)NC(=O)[C@@H]2CCCN2C(=O)[C@H]2CCCN2C(=O)[C@H](CCN)NC(=O)[C@H](C)NC(=O)[C@H](CCN)NC(=O)[C@H](CCCCN)NC(=O)[C@H](Cc2c[nH]c3ccccc23)NC(=O)[C@H](CCN)NC(=O)[C@H](CCN)NC(=O)[C@H](CCCCN)NC(=O)[C@H](CCN)NC1=O [Example 27] (cyclo(TWI[Dab]K[Dab][Dab]WK[Dab]A[Dab][dP]P)) | 50 µM | 0.30 µg/mL (≈ 0.186 µM) | 0.50 µg/mL (≈ 0.311 µM) | 0.30 µg/mL (≈ 0.186 µM) | 0.21 µg/mL (≈ 0.131 µM) | 0.6% | 0.28 µg/mL | 0.09 µg/mL (≈ 0.0559 µM)
CC[C@H](C)[C@@H]1NC(=O)[C@H](Cc2c[nH]c3ccccc23)NC(=O)[C@H]([C@@H](C)O)NC(=O)[C@@H]2CCCN2C(=O)[C@H]2CCCN2C(=O)[C@H](CCN)NC(=O)[C@H](C(C)C)NC(=O)[C@H](CCN)NC(=O)[C@H](CCN)NC(=O)[C@H](Cc2c[nH]c3ccccc23)NC(=O)[C@H](CCN)NC(=O)[C@H](CCN)NC(=O)[C@H](CCCCN)NC(=O)[C@H](CCC(N)=O)NC1=O [Example 30] (cyclo(TWIQK[Dab][Dab]W[Dab][Dab]V[Dab][dP]P)) | 46 µM | 0.13 µg/mL (≈ 0.0794 µM) | 2.00 µg/mL (≈ 1.22 µM) | 0.30 µg/mL (≈ 0.183 µM) | 0.50 µg/mL (≈ 0.305 µM) | 0.5% | 0.60 µg/mL | 0.09 µg/mL (≈ 0.055 µM)
